Tests used:
[1] = molecular target: T1, PPARδ (Homo sapiens, UniProt Q03181); test: homogenous Alpha screen assay, agonist mode, coactivator Biotin-PGC-1 peptide recruitment; assay type: biochemical; conditions: His-tagged PPAR-LBD 10 nM, 25 nM biotin-PGC-1 peptide, 1 hour room temperature; read-out: EC50 with respect to PPARδ
T1 construct: P1057. pET BAM6 PPARD G165-Y441-X; made in house; host or cells: E. coli BL21(DE3)RIL
T1 sequence (Q03181 with tags, fused parts or gaps): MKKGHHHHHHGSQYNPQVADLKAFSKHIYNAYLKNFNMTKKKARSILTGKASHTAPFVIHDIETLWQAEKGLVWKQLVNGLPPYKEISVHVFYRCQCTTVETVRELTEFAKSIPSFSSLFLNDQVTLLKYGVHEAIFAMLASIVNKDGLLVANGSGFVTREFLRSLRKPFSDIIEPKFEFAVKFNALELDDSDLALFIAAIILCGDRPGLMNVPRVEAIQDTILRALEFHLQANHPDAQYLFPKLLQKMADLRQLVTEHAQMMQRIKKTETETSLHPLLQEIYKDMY
Excerpt: (§1) Plasmids encoding the Ligand-binding domains (LBDs) of PPARα, PPARγ, and PPARδ were engineered using common polymerase chain reaction (PCR) methods (pGal4-PPARα-LBD, pGal4-PPARγ-LBD, pGal4-PPARδ-LBD). The relevant DNA sequences and encoded protein sequences used in the assay are shown for each (see below). Complementary DNA cloned from various human tissues was purchased from Invitrogen, and these were used as substrates in the PCR reactions. Specific custom synthetic oligonucleotide primers (Invitrogen, see below) were designed to initiate the PCR product, and also to provide the appropriate restriction enzyme cleavage sites for ligation with the plasmids.
For PPARδ protein expression, single colonies were grown for 4 hrs at 37° C. in 200 mL LB media. 16×1 L of fresh TB media in 2.8 L flasks were inoculated with 10 mL of starter culture and grown with constant shaking at 37° C. […] Cells were harvested by centrifugation and pellets frozen at −80° C. until ready for lysis/purification. […]
(§2) The homogenous Alpha screen assay was used in the agonist mode to determine the ligand dependent interaction of the PPARs (α,δ,γ) with the coactivator Biotin-PGC- 1 peptide (biotin-AHX-[…]-CONH2 (SEQ ID NO: 13), supplied by Wyeth). […] The samples were incubated for 1 hour in the dark at room temperature before taking the reading in the Fusion alpha or Alpha Quest reader. […]

[2] = molecular target: T2, PPARγ (Homo sapiens, UniProt P37231); test: as above; assay type: biochemical; conditions: His-tagged PPAR-LBD 20 nM, 25 nM biotin-PGC-1 peptide, 1 hour room temperature; read-out: EC50 with respect to PPARγ
T2 sequence (P37231 with tags, fused parts or gaps): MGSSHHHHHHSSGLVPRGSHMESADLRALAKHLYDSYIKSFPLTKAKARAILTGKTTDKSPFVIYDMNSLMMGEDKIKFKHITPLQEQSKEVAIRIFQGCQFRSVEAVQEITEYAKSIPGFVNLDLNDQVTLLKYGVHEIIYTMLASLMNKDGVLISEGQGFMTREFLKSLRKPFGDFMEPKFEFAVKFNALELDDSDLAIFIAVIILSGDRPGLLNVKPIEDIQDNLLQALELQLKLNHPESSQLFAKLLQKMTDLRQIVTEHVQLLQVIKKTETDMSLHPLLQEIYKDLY
Excerpt: as §1
For protein expression, plasmids containing genes of interest were transformed into E. coli strain BL21(DE3)RIL (Invitrogen) and transformants selected for growth on LB agar plates containing appropriate antibiotics. Single colonies were grown for 4 hrs at 37° C. in 200 ml LB media. […]. […]
as §2

[3] = molecular target: T3, PPARδ (Homo sapiens, UniProt Q03181); conditions: cited from earlier work
T3 sequence (Q03181 1-441): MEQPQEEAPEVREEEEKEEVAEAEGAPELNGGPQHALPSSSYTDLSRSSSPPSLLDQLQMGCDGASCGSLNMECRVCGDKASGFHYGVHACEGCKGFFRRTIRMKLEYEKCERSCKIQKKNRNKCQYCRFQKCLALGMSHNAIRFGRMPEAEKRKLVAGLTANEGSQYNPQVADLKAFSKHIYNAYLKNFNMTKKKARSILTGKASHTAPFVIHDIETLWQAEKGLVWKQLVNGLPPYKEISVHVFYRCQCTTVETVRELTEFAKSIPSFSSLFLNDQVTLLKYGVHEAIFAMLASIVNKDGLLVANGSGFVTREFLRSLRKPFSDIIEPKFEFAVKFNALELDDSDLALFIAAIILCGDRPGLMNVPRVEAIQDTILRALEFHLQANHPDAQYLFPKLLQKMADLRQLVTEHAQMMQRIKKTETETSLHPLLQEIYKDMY

[4] = molecular target: T4, murine PPARα (Mus musculus, UniProt P23204); conditions: cited from earlier work
T4 sequence (P23204 1-468): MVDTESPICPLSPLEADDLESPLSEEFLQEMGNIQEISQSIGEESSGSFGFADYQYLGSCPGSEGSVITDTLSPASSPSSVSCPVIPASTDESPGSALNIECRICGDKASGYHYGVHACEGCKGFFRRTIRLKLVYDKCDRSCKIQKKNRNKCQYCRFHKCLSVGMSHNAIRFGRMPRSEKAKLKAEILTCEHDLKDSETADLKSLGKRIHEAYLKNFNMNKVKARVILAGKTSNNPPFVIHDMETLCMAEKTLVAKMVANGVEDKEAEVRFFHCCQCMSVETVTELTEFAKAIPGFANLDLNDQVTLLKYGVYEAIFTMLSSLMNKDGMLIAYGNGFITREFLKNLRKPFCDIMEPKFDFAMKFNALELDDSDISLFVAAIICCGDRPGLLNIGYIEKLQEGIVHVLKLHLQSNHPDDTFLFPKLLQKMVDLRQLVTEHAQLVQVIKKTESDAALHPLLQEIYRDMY

[5] = recent large prospective trial; cited from earlier work

Molecule `COc1ccc2c(c1)c(SCC(=O)O)cn2S(=O)(=O)c1ccc(Cl)c(Cl)c1` [Compound 27, [1-(3,4-dichloro-benzenesulfonyl)-5-methoxy-1H-indol-3-ylsulfanyl]-acetic acid] has an EC50 [1] of under 1 µM and an EC50 [2] of under 1 µM.
For `CCCc1c(OCCCOc2ccc(OCC(=O)O)cc2)ccc(C(C)=O)c1O` [Compound L-165041], the “agonist selectivity for PPARδ over PPARγ” value [3] is given as “approximately 30 fold” and the “activity on murine PPARα” value [4] is given as “inactive”.
In the case of `Cc1ccc(C)c(OCCCC(C)(C)C(=O)O)c1` [gemfibrozil], the “reduction in cardiovascular events or death” value [5] is listed as 22%.
